Results published in patent US20220016115A1, “USP19 INHIBITORS FOR USE IN THERAPY” (ALMAC DISCOVERY LIMITED, priority 2018, published 2022).
Entries after “also recorded” stand apart in the source; their conditions may differ.

How the values were obtained:
male C57bl/6 mice = assay: Sciatic nerve denervation muscle wasting model; assay type: in vivo; conditions: 75 mg/kg IP twice daily, vs vehicle
Method: To induce muscle wasting, a 1 cm segment of the sciatic nerve in the thigh was removed from mice (male C57bl/6 mice at 8-10 weeks of age; n=10 per group) under isoflurane anaesthesia and analgesia with carprofen. A sham operation was carried out in the opposite leg as a control.
Mice were randomised into Vehicle or Test groups, with all animals weighed to ensure a similar mean weight in each group. A USP19 inhibitory compound (ADC-141, which is 1-(((S)-7-((R)-3-Cyclohexyl-2-methylpropanoyl)-10-hydroxy-7-azaspiro[4.5]decan-10-yl)methyl)-4-phenyl-5-(piperazine-1-carbonyl)pyridin-2(1H)-one, corresponding to exemplary compound 212 provided herein) at 75 mg/kg or Vehicle was administered IP twice daily starting from the evening post-operation.
Mice were sacrificed 14 days later. Fat pads, liver, gastrocnemius and tibialis anterior muscles were harvested. Tissue mass were measured in both groups.

USP19 = molecular target: T1, USP19 (Mus musculus, UniProt Q3UJD6); assay: Cell target engagement, mouse skeletal muscle cell line; assay type: cell-based
T1 construct: endogenous in cells
T1 sequence (Q3UJD6 1-1360): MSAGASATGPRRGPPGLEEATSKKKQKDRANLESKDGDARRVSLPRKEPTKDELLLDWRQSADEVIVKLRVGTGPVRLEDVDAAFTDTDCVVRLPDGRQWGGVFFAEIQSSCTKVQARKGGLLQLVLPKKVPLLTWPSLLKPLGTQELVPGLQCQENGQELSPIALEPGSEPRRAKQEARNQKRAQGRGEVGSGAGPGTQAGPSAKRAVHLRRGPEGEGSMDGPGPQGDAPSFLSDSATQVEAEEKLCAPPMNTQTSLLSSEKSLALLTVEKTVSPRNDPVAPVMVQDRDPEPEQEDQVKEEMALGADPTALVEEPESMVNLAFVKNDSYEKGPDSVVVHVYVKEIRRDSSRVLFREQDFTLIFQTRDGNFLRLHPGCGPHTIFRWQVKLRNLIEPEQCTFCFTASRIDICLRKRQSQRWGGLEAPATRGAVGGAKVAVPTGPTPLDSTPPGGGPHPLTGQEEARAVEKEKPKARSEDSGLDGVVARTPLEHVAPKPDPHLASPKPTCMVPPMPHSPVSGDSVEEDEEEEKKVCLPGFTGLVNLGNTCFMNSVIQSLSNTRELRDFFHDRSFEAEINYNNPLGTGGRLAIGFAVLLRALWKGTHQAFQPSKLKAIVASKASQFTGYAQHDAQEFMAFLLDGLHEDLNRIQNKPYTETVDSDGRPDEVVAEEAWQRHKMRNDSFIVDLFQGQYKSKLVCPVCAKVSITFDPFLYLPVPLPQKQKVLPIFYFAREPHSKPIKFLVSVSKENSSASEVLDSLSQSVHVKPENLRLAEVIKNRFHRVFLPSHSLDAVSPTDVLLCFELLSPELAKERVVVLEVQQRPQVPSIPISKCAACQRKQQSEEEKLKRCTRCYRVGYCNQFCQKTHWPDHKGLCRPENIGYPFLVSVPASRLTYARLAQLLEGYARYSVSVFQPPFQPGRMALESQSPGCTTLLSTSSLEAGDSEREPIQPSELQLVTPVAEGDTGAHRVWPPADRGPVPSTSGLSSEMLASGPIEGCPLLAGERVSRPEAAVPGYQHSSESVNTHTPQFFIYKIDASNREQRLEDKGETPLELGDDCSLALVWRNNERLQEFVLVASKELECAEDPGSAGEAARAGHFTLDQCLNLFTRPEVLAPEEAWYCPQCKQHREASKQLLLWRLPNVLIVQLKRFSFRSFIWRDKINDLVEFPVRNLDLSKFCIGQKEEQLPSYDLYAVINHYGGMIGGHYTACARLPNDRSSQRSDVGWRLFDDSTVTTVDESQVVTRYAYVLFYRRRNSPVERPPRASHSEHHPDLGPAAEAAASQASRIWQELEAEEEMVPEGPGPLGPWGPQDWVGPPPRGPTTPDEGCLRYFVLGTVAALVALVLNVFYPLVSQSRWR
Method: Cells from a breast cancer cell line, a neuroblastoma cell line and a mouse skeletal muscle cell line were treated with a USP19 inhibitor compound (ADC-141, corresponding to Example 212 provided herein) for 2 hrs, lysed (lysis buffer: 50 mM Tris pH 7.4; 150 mM NaCl; 5 mM MgCl2; 0.5 mM EDTA; 0.5% NP40; 10% Glycerol; 2 mM DTT) and Ubiquitin-propargylamine (Ub-PA; UbiQ) or Ubiquitin-vinyl methyl ester (Ub-VME; Almac Sciences Scotland Limited) was then added. Samples were analysed by western blotting probing for USP19 (EC50 determined by densitometry).

C[C@H](CC1CCCCC1)C(=O)N1CC[C@@](O)(Cn2cc(C(=O)N3CCNCC3)c(-c3ccccc3)cc2=O)C2(CCCC2)C1 [ADC-141, 1-(((S)-7-((R)-3-Cyclohexyl-2-methylpropanoyl)-10-hydroxy-7-azaspiro[4.5]decan-10-yl)methyl)-4-phenyl-5-(piperazine-1-carbonyl)pyridin-2(1H)-one]
liver mass (male C57bl/6 mice; 2 weeks): increase in liver mass
mass of the epididymal fat pad (male C57bl/6 mice; 2 weeks): significant reduction in fat mass; also recorded: significantly smaller fat pads
loss of muscle mass in the tibialis anterior muscle (male C57bl/6 mice; denervated limb, 14 days): significantly lower loss of muscle mass
muscle wasting in the gastrocnemius muscle (male C57bl/6 mice; denervated limb, 14 days): reduced in the gastrocnemius muscle (FIG. 2), though the trend did not reach significance
cell permeability (USP19): good cell permeability
EC50 (USP19 target engagement, densitometry) (USP19; 2 hrs treatment, Ub-PA or Ub-VME probe, western blot): low nanomolar
